Laboratory results taken from patent publication US11040981B2, “Pyrrolotriazine compounds and methods of inhibiting TAM kinases” (Syros Pharmaceuticals, Inc., priority 2017, dated 2021).

Legend:
TYRO3 = biological target: T1, TYRO3 (Homo sapiens, UniProt Q06418); test: TR-FRET kinase activity assay, TYRO3; assay type: biochemical; conditions: ATP at Km, 60 minutes
T1 sequence (Q06418 41-890): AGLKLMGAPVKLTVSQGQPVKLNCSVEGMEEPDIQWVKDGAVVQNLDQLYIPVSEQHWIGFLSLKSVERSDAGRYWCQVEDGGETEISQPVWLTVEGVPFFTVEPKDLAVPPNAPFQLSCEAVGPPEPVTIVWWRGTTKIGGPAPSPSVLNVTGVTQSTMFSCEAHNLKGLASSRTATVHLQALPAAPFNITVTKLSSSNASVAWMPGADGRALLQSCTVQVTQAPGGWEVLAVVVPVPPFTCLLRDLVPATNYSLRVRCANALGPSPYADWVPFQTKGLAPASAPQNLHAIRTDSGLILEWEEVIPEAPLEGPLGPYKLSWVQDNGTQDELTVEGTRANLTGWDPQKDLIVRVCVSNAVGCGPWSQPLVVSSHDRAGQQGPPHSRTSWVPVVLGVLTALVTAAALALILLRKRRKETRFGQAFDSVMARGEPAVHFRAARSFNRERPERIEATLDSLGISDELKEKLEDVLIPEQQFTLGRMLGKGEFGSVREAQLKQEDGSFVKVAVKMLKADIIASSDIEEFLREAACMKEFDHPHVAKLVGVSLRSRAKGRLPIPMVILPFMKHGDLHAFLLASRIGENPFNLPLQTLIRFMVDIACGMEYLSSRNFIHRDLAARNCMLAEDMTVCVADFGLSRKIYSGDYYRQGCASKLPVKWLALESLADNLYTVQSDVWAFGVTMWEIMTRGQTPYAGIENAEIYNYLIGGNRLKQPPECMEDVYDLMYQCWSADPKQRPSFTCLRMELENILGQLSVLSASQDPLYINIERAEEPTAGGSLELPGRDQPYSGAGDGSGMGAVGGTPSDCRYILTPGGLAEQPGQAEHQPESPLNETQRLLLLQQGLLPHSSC
How it was run: (§1)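 Recombinant human kinases, fluorescent peptide substrate, ATP at Km; 1 h RT, pH 7.5. EDTA-quenched, Eu antibody added, TR-FRET read; IC50 determined.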

MERTK = biological target: T2, MERTK (Homo sapiens, UniProt Q12866); test: TR-FRET kinase activity assay, MERTK; assay type: biochemical; conditions: for IC50: TR-FRET activity assay, ATP at Km, 60 minutes, read-out: Mer IC50
T2 sequence (Q12866 21-999): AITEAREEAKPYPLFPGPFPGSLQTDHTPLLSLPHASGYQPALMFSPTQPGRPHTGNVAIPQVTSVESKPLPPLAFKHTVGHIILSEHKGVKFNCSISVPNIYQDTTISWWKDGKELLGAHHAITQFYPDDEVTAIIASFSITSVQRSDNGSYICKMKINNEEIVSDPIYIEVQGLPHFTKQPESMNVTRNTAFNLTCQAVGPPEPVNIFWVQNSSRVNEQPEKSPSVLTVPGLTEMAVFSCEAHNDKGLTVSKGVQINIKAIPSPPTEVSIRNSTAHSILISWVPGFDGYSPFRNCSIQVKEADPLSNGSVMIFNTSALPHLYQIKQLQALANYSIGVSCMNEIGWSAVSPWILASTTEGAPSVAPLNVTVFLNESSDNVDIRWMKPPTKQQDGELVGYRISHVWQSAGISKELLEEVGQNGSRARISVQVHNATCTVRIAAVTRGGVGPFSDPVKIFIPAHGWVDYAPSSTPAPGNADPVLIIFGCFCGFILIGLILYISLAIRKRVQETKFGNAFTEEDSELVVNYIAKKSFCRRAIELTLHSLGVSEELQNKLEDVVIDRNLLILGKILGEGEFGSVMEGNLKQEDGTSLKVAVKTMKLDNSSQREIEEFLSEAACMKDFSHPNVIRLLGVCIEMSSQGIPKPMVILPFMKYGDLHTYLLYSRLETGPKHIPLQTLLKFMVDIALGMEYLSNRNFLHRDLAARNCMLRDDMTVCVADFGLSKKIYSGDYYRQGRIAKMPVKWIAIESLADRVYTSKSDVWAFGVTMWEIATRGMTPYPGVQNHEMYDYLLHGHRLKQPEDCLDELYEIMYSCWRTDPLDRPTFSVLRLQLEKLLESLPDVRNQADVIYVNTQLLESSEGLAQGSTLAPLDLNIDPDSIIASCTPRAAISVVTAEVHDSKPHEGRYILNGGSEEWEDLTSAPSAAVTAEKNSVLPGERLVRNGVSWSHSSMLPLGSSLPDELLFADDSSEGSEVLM
How it was run: as §1

[1] = ratio of Mer to FLT3: FLT3 IC50/Mer IC50
[2] = ratio calculated as FLT3 IC50/Mer IC50

| SMILES | IC50 (TYRO3) [nM] | IC50 (MERTK) [nM] | FLT3/Mer ratio (FLT3 IC50/Mer IC50) (MERTK; [1]) | FLT3/Mer ratio (FLT3 IC50/Mer IC50) (MERTK; [2]) |
| --- | --- | --- | --- | --- |
| COCC(C)Nc1ncc2c(-c3ccc(C(C)N4CCOCC4)cc3)cc(C3CCC(O)CC3)n2n1 (stereo not drawn) [Compound 182] | ≤ 100 | ≤ 100 | ++ (“++” represents a ratio of between 10 and 100) |  |
| COC[C@H](C)Nc1ncc2c(-c3ccnc(C)c3)cc([C@H]3CC[C@@H](O)CC3)n2n1 [Compound 183] | ≤ 100 | ≤ 100 | +++ (“+++” represents a ratio of >100) |  |
| COC[C@H](C)Nc1ncc2c(-c3ccc(C4(N5CCOCC5)CC4)cc3)cc([C@H]3CC[C@H](O)CC3)n2n1 [Compound 184] | ≤ 100 | ≤ 100 | ++ (“++” represents a ratio of between 10 and 100) |  |
| COC[C@H](C)Nc1ncc2c(-c3cnn(Cc4nnc(C)s4)c3)cc([C@H]3CC[C@H](O)CC3)n2n1 [Compound 596] | ≤ 100 | ≤ 100 |  | +++ (“+++” represents a ratio of >100) |
| C[C@@H](COC(F)F)Nc1ncc2c(-c3ccnc(N4CCO[C@@H](C(C)(C)O)C4)c3)cc([C@H]3CC[C@H](O)CC3)n2n1 [Compound 597] | ≤ 100 | ≤ 100 |  | +++ (“+++” represents a ratio of >100) |
| C[C@@H](COC(F)F)Nc1ncc2c(-c3ccnc(N4CCOC(C(C)(C)O)C4)c3)cc([C@H]3CC[C@H](O)CC3)n2n1 (stereo partly drawn) [Compound 598] | ≤ 100 | ≤ 100 |  | +++ (“+++” represents a ratio of >100) |
| COC[C@H](C)Nc1ncc2c(-c3cnn(C(C)(C)c4nnc(C(F)F)o4)c3)cc([C@H]3CC[C@H](O)CC3)n2n1 [Compound 599] | ≤ 100 | ≤ 100 |  | +++ (“+++” represents a ratio of >100) |
| COC[C@H](C)Nc1ncc2c(-c3cnn(C(C)(C)c4nnc(C(C)C)o4)c3)cc([C@H]3CC[C@H](O)CC3)n2n1 [Compound 600] | ≤ 100 | ≤ 100 |  | +++ (“+++” represents a ratio of >100) |
| COC[C@H](C)Nc1ncc2c(-c3cnn(C(C)(C)c4nnc([C@@H]5CCCO5)o4)c3)cc([C@H]3CC[C@H](O)CC3)n2n1 [Compound 601] | ≤ 100 | ≤ 100 |  | +++ (“+++” represents a ratio of >100) |
| COC[C@H](C)Nc1ncc2c(-c3cnn(C(C)(C)c4nnc([C@H]5CCCO5)o4)c3)cc([C@H]3CC[C@H](O)CC3)n2n1 [Compound 602] | ≤ 100 | ≤ 100 |  | +++ (“+++” represents a ratio of >100) |
| COC[C@H](C)Nc1ncc2c(-c3cnn(C(C)(C)c4nnc(C(F)(F)F)o4)c3)cc([C@H]3CC[C@H](O)CC3)n2n1 [Compound 603] | ≤ 100 | ≤ 100 |  | +++ (“+++” represents a ratio of >100) |
| COC[C@H](C)Nc1ncc2c(-c3cnn(C(C)(C)c4nnco4)c3)cc([C@H]3CC[C@H](O)CC3)n2n1 [Compound 604] | ≤ 100 | ≤ 100 |  | +++ (“+++” represents a ratio of >100) |
| COC[C@H](C)Nc1ncc2c(-c3ccnc(N4CCC(C)(O)CC4)c3)cc([C@H]3CC[C@H](O)CC3)n2n1 [Compound 605] | ≤ 100 | ≤ 100 |  | +++ (“+++” represents a ratio of >100) |
